“Also recorded” adds a separate entry of the source.
Columns and labels:
[1] = system: monolayer C3A cells; test: Monolayer C3A cells incubated with inflammatory cytokines (IL-6, IL-1β, TNF-α); secreted factors assayed in conditioned media by ELISA/multiplex; format: cell-based, human; details: for AAT secretion at 54 h: 54 h compared with 24 h; for TNF-α secretion: 24 and 48 h; for IL-10 secretion / IL-10 secretion at 48 hr: 10 ng/mL; for IL-10 secretion: 24 h vs controls; for IL-10 secretion at 48 hr: 48 hr compared with 24 h
Protocol: (§1) Conditioned media from C3A cells of an active cartridge of a treatment system of the disclosure were assayed for APP, cytokines, and other mediators that affect inflammation using singleplex ELISA kits (R&D Systems, abcam), chemiluminescent multiplex array kits (Aushon) and/or contracted services (Myriad Rules Based Medicine). Inflammatory cytokines reported to be present in hepatitis patient serum (IL-6 [0, 1, 10, 100 ng/mL]±IL-1β [0, 1, 10, 100 ng/mL]) were incubated with monolayer, or C3A cells recovered from the treatment system, for 24 or 54 h, and conditioned media were assayed for the APP IL-1 receptor antagonist (IL-1Ra), alpha-1-antitrypsin (AAT), and albumin. Lipopolysaccharide (LPS) (0, 0.01, 0.1, 1, 10 EU/mL) was incubated with monolayer C3A cells for 24 h and assayed for APP.
Conditioned media from active cartridges including qualified C3A cells were assayed for APP, cytokines, and other mediators that affect inflammation. Inflammatory cytokines present in patient serum (IL-6±IL-1β) were incubated with monolayer, or C3A cells recovered from the system, for 24 or 54 h and media assayed for IL-1 receptor antagonist (IL-1Ra) and alpha-1-antitrypsin (AAT).
(§2) C3A cells of the invention were plated in monolayer and incubated with LPS or with inflammatory cytokines (IL-6, IL-1β, and/or TNF-α) for 24, 48, or 54 h. Cytokines were dosed individually or in combination at 0, 1, 10, or 100 ng/mL as indicated in each figure. Separate C3A cells were incubated with LPS at 0, 0.01, 0.1, 1, or 10 EU/mL for 24 h.
(§3) Additionally, intact C3A tissue (C3A cells cultured three-dimensionally between polysulfone hollow fibers) was excised from C3A cell cartridges and dosed in conjunction with 10 ng/mL IL-1β and 10 ng/mL IL-6 for 24 h. The supernatants from these monolayer C3A cell and ELAD C3A tissue experiments were assayed for IL-1Ra, AAT, IL-10, or albumin via in-house and commercial ELISA kits (R&D Systems, abcam), contracted services for multiplex ELISAs (Myriad), or chemiluminescent multiplex assay kits (Aushon).

[2] = system: monolayer C3A cells; test: Monolayer C3A cells incubated with LPS for 24 h; IL-1Ra and AAT assayed in media; format: cell-based, human
Protocol: as §1, §2, §3

[3] = Example 1, monolayer C3A cultures
[4] = Example 3, monolayer C3A cells 1.3×10^5 cells/cm, 24 and 54 h, n=3
[5] = Example 3, monolayer C3A cells 1.3×10^5 cells/cm^2
[6] = Example 3, monolayer, 24, 48 hr
[7] = Example 3, monolayer, 24 hr, 48 hr
[8] = Examples 1-2, monolayer C3A cells, 24 h, single replicates of pooled triplicate wells
[9] = Examples 1-2, monolayer C3A cells
[10] = monolayer C3A cells 2.6×10^5 cells/cm^2
[11] = monolayer C3A cells, IL-6 ± IL-1β 1-100 ng/mL, 24 h (or time not stated)
[12] = FIG. 18 experiment, monolayer C3A cells 2.6×10^5 cells/cm^2, TNF-α 1, 10 or 100 ng/mL, IL-1β 10 ng/mL

Interleukin-6 [IL-6] showed an IL-10 increase [1, 3] of 10 fold, an IL-18 increase [1, 3] of 9 fold and an MCP-1 increase [1, 3] of 15 fold. For the same substance, the TNF-β increase [1, 3] was 12 fold, the fibrinogen increase [1, 3] was 6 fold and the AAT secretion [1, 4] was “no apparent effect; also recorded: not affected”. For the same substance, the fibrinogen secretion [1, 5] was “increased”, the α-2 macroglobulin secretion [1, 5] was “increased; also recorded: modestly upreguated” and the “Fibrinogen increase vs. control” value [1, 6] was about 6 fold. The “IL-18 increase vs. control” value [1, 6] was about 9 fold, the “Monocyte chemotactic protein 1 (MCP-1) increase vs. control” value [1, 6] was about 15 fold and the “TNF-β increase vs. control” value [1, 6] was about 12 fold. For the same substance, the “Granulocyte-colony stimulating factor (G-CSF) increase vs. control” value ([1]; Example 3, monolayer, 24 hr) was about 50 fold, the “IL-7 increase vs. control” value ([1]; Example 3, monolayer, 24 hr) was about 10 fold and the “IL-10 increase vs. control” value ([1]; Example 3, monolayer, 24 hr) was about 10 fold. The “IL-8 increase vs. control” value [1, 7] was ~2,000 fold, the “Stem cell factor (SCF) increase vs. control” value [1, 7] was about 100 fold and the “TNFα increase vs. control” value [1, 7] was about 25 fold. For the same substance, the “Granulocyte-colony stimulating factor (G-CSF) increase vs. control” value ([1]; Example 3, monolayer, 48 hr) was about 75 fold, the “IL-7 increase vs. control” value ([1]; Example 3, monolayer, 48 hr) was about 14 fold and the “Granulocyte-colony stimulating factor (G-CSF) increase with IL-6 vs. control” value ([1]; Example 3, monolayer, 24 hr) was about 300 fold. The “Granulocyte-colony stimulating factor (G-CSF) increase with IL-6 vs. control” value ([1]; Example 3, monolayer, 48 hr) was about 500 fold, the AAT secretion [1, 8] was “dose-dependent upregulation; also recorded: upregulated; also recorded: dose-dependent up-regulation” and the “AAT secretion at 54 h” value [1, 9] was “further increased; also recorded: increases with exposure time”. For the same substance, the TNF-α secretion [1, 10] was “upregulated; also recorded: low, yet elevated”, the IL-10 secretion ([1]; monolayer C3A cells) was “increased above the controls; also recorded: upregulated” and the “IL-10 secretion at 48 hr” value ([1]; monolayer C3A cells) was “further increased”. The IL-1Ra secretion [1, 11] was “did not increase”.
With lipopolysaccharide [LPS] the IL-1Ra secretion ([2]; LPS 0.01, 0.1, 1, 10 EU/mL) was “increased; also recorded: upregulated”, the AAT levels ([2]; LPS 0.01-10 EU/mL, higher concentrations = 1 and 10 EU/mL) was “upregulated; also recorded: increased only at higher concentrations” and the IL-1Ra secretion increase ([2]; LPS at all concentrations evaluated (0.01, 0.1, 1, and 10 EU/mL)) was “approximately 2 fold”.
In the case of TNF-α, the “IL-1Ra secretion at the highest dose” value ([1]; FIG. 18 experiment, TNF-α 100 ng/mL) is reported as “observed decrease”, the IL-1Ra secretion [1, 12] is reported as “did not increase; also recorded: not TNF-α alone” and the APP expression ([1]; TNF-α, except when dosed 10,000-fold higher than measured in culture) is reported as “did not significantly impact”.
For Interleukin-1 beta [IL-1β], the G-CSF increase [1, 3] was 50 fold, the IL-8 increase [1, 3] was 2,000 fold and the SCF increase [1, 3] was 100 fold. For the same substance, the TNFα increase [1, 3] was 25 fold, the AAT secretion [1, 4] was “no apparent effect; also recorded: not affected” and the “IL-6-induced fibrinogen expression on addition of IL-1β” value ([1]; Example 3, monolayer C3A cells, IL-1β added to IL-6) was “abrogated”. The AAT secretion [1, 8] was “dose-dependent upregulation; also recorded: upregulated”, the AAT secretion ([1]; Examples 1-2, monolayer C3A cells, 24 h, single replicates of pooled triplicate wells, listed as IL-1 β) was “dose-dependent up-regulation” and the “AAT secretion at 54 h” value [1, 9] was “further increased; also recorded: increases with exposure time”. For the same substance, the “AAT secretion at 54 h” value ([1]; Examples 1-2, monolayer C3A cells, listed as IL-1 β) was “further increased”, the IL-1Ra secretion [1, 12] was “increased; also recorded: upregulated” and the TNF-α secretion [1, 10] was “upregulated; also recorded: low, yet elevated”. For the same substance, the IL-10 secretion ([1]; monolayer C3A cells) was “increased above the controls; also recorded: upregulated”, the “IL-10 secretion at 48 hr” value ([1]; monolayer C3A cells) was “further increased” and the IL-1Ra secretion [1, 11] was “did not increase”.

— patent US20180185448A1, “COMPOSITION AND METHOD FOR INDUCING ANTI-INFLAMMATORY RESPONSE” (Vital Therapies, Inc., priority 2015, published 2018)
